Results: patent US20060287247A1, “Halogen-substituted thienyl compounds” (priority 2001, published 2006)

How the values were obtained:
S. aureus ATCC 29213 = test: NCCLS broth microdilution MIC; format: cell-based, Staphylococcus aureus; conditions: A = S. aureus ATCC 29213
Procedure: (§1) Compounds according to this invention were screened for their in vitro activities against selected species of bacteria and fungi. The minimal inhibition concentration (MIC) of these compounds was determined using the National Committee for Clinical Laboratory Standards (NCCLS) broth microdilution assay in microtiter plates, as set forth in: (1) the guidelines of the National Committee for Clinical Laboratory Standards (NCCLS) Document M7-A4 (NCCLS, 1997); (2) the guidelines of the National Committee for Clinical Laboratory Standards (NCCLS) Document M11-A4 (NCCLS, 1997); and (3) the guidelines and reference method of the National Committee for Clinical Laboratory Standards (NCCLS) Document M27-T (NCCLS, 1995). For antifungal essays, the method recommended in Murray, P R., 1995 Manual of Clinical Microbiology (ASM Press, Washington, D.C.), was employed. […]

E. faecalis ATCC 29212 = test: NCCLS broth microdilution MIC; format: cell-based, Enterococcus faecalis; conditions: B = E. faecalis ATCC 29212
Procedure: as §1

B. cereus ATCC 11778 = test: NCCLS broth microdilution MIC; format: cell-based, Bacillus cereus; conditions: C = B. cereus ATCC 11778
Procedure: as §1

E. coli ATCC 25922 = test: NCCLS broth microdilution MIC; format: cell-based; conditions: D = E. coli ATCC 25922
Procedure: as §1

C. albicans ATCC 38247 = test: NCCLS broth microdilution MIC (antifungal); format: cell-based; conditions: E = C. albicans ATCC 38247
Procedure: as §1

S. pneumoniae ATCC 49619 = test: NCCLS broth microdilution MIC; format: cell-based, Streptococcus pneumoniae; conditions: F = S. pneumoniae ATCC 49619
Procedure: as §1

SMILES	Minimum Inhibitory Concentration (MIC) (S. aureus ATCC 29213)	Minimum Inhibitory Concentration (MIC) (E. faecalis ATCC 29212)	Minimum Inhibitory Concentration (MIC) (B. cereus ATCC 11778)	Minimum Inhibitory Concentration (MIC) (E. coli ATCC 25922)	Minimum Inhibitory Concentration (MIC) (C. albicans ATCC 38247)	Minimum Inhibitory Concentration (MIC) (S. pneumoniae ATCC 49619)
CN(C)CCN(C)C(=O)CCNC(=O)c1cc(NC(=O)c2cc(NC(=O)CCNC(=O)c3cc(NC(=O)c4cc(NC(=O)c5cc(Br)c(Br)s5)cn4C)cn3C)cn2C)cn1C [Id-10]	>32 µg/mL	>32 µg/mL	>32 µg/mL	>32 µg/mL	>32 µg/mL	+++ (+++ = MIC ≦4)
CCNCCNC(=O)CCNC(=O)c1cc(NC(=O)c2cc(NC(=O)CCNC(=O)c3cc(NC(=O)c4cc(NC(=O)c5cc(Br)c(Br)s5)cn4C)cn3C)cn2C)cn1C [Id-12]	+++ (+++ = MIC ≦4)	+++ (+++ = MIC ≦4)	+++ (+++ = MIC ≦4)	>32 µg/mL	>32 µg/mL	+++ (+++ = MIC ≦4)
Cn1cc(NC(=O)c2cc(NC(=O)CCNC(=O)c3cc(NC(=O)c4cc(NC(=O)c5cc(Br)c(Br)s5)cn4C)cn3C)cn2C)cc1C(=O)NCCC(=O)NCCCN1CCNCC1 [Id-13]	>32 µg/mL	>32 µg/mL	>32 µg/mL	>32 µg/mL	>32 µg/mL	>32 µg/mL
Cn1cc(NC(=O)c2cc(NC(=O)CCNC(=O)c3cc(NC(=O)c4cc(NC(=O)c5ccc(Br)s5)cn4C)cn3C)cn2C)cc1C(=O)NCCC(=O)NCC(C)(C)CN [Id-20]	>32 µg/mL	>32 µg/mL	>32 µg/mL	>32 µg/mL	>32 µg/mL	+++ (+++ = MIC ≦4)
Cn1cc(NC(=O)c2cc(NC(=O)CCNC(=O)c3cc(NC(=O)c4cc(NC(=O)c5ccc(Br)s5)cn4C)cn3C)cn2C)cc1C(=O)NCCC(=O)NCc1cccnc1 [Id-23]	>32 µg/mL	+++ (+++ = MIC ≦4)	>32 µg/mL	>32 µg/mL	>32 µg/mL	+++ (+++ = MIC ≦4)
Cn1cc(NC(=O)c2cc(NC(=O)CCNC(=O)c3cc(NC(=O)c4cc(NC(=O)c5cc(Br)c(NCCCN)s5)cn4C)cn3C)cn2C)cc1C(=O)NCCC(=O)NCCCN [Id-25]	+ (+ = MIC from 12 to 32, inclusive)	+ (+ = MIC from 12 to 32, inclusive)	+++ (+++ = MIC ≦4)	>32 µg/mL	>32 µg/mL	+++ (+++ = MIC ≦4)
CN(C)CCCNC(=O)CCNC(=O)c1cc(NC(=O)c2cc(NC(=O)CCNC(=O)c3cc(NC(=O)c4cc(NC(=O)c5sccc5Cl)cn4C)cn3C)cn2C)cn1C [Id-27]	++ (++ = MIC between 4 and 12)	>32 µg/mL	+++ (+++ = MIC ≦4)	>32 µg/mL	+ (+ = MIC from 12 to 32, inclusive)	+++ (+++ = MIC ≦4)
CN(C)CCCNC(=O)CCNC(=O)c1cc(NC(=O)c2cc(NC(=O)CCNC(=O)c3cc(NC(=O)c4cc(NC(=O)c5sccc5F)cn4C)cn3C)cn2C)cn1C [Id-30]	>32 µg/mL	>32 µg/mL	>32 µg/mL	>32 µg/mL	>32 µg/mL	++ (++ = MIC between 4 and 12)
CN(C)CCCNC(=O)c1cc(NC(=O)c2cc(NC(=O)c3cc(NC(=O)c4sccc4F)cn3C)cn2C)cn1C [Ie-4]	++ (++ = MIC between 4 and 12)	++ (++ = MIC between 4 and 12)	+ (+ = MIC from 12 to 32, inclusive)	>32 µg/mL	>32 µg/mL	+++ (+++ = MIC ≦4)
Cn1cc(NC(=O)c2cc(NC(=O)c3cc(NC(=O)c4sccc4F)cn3C)cn2C)cc1C(=O)NCCN1CCOCC1 [Ie-5]	+++ (+++ = MIC ≦4)	>32 µg/mL	+++ (+++ = MIC ≦4)	>32 µg/mL	>32 µg/mL	+++ (+++ = MIC ≦4)
Cn1cc(NC(=O)c2cc(NC(=O)c3cc(NC(=O)c4sccc4Cl)cn3C)cn2C)cc1C(=O)NCCN1CCOCC1 [Ie-6]	+++ (+++ = MIC ≦4)	+++ (+++ = MIC ≦4)	+++ (+++ = MIC ≦4)	>32 µg/mL	>32 µg/mL	+++ (+++ = MIC ≦4)
Cc1csc(C(=O)Nc2cc(C(=O)Nc3cc(C(=O)Nc4cc(C(=O)NCCN5CCOCC5)n(C)c4)n(C)c3)n(C)c2)c1Cl [Ie-11]	+++ (+++ = MIC ≦4)	+++ (+++ = MIC ≦4)	+++ (+++ = MIC ≦4)	>32 µg/mL	>32 µg/mL	+++ (+++ = MIC ≦4)
CN(C)CCCNC(=O)CCNC(=O)c1cc(NC(=O)c2cc(NC(=O)c3cc(NC(=O)c4nc(NC(=O)CCCNC(=O)c5cc(NC(=O)c6cc(NC(=O)c7cc(NC(=O)c8cc(Br)c(Br)s8)cn7C)cn6C)cn5C)cn4C)cn3C)cn2C)cn1C [If-1]	>32 µg/mL	>32 µg/mL	>32 µg/mL	>32 µg/mL	>32 µg/mL	>32 µg/mL
Cn1cc(NC(=O)c2cc(NC(=O)c3cc(NC(=O)c4ccc(Br)s4)cn3C)cn2C)cc1C(=O)NCCCC(=O)Nc1cn(C)c(C(=O)Nc2cc(C(=O)Nc3cc(C(=O)Nc4cc(C(=O)NCCC(=O)NCCCN5CCNCC5)n(C)c4)n(C)c3)n(C)c2)n1 [If-2]	>32 µg/mL	>32 µg/mL	>32 µg/mL	>32 µg/mL	>32 µg/mL	>32 µg/mL
